Earlier results on 9 compounds are cited in patent US20220001014A1 (priority 2020, published 2022).

In data set [1] the target is ACE (Homo sapiens, UniProt P12821).
Data set [2] addresses Neprilysin (Homo sapiens, UniProt P08473).
The target of data set [3] is T1, Bradykinin B2 (Homo sapiens, UniProt P30411).
T1 construct: host or cells: subjects in vivo (endogenous receptor)
T1 sequence (P30411 1-391): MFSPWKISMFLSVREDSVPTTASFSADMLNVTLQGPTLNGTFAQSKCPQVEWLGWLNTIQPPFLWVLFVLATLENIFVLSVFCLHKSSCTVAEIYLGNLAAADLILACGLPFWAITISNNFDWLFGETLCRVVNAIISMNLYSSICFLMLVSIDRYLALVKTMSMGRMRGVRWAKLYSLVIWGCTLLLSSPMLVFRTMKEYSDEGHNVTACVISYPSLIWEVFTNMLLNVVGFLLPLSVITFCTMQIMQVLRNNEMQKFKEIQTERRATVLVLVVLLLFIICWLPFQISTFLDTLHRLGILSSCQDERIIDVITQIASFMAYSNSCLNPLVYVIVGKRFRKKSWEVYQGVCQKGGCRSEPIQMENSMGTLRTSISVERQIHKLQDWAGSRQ
The settings on record: 18 μg/kg/h iv for 6 h; sodium-deplete normotensive and hypertensive subjects.

For data set [4] the following is noted: in vivo.
In data set [5] the test system is SARS-CoV. The settings on record: mice; dosed at concentrations similar to the clinically achievable concentration in humans; reduced from 100%.
Data set [6] relates to SARS-COV2. The settings on record: recent in vitro studies.
Data set [7] concerns SARS-CoV. To be noted: lung epithelial cell lines.
For data set [8] the following is noted: injection; LPS-induced acute lung injury.

Counter-ions that a name gives are not always drawn.

Sequence of ACE (P12821 30-1306, species assumed): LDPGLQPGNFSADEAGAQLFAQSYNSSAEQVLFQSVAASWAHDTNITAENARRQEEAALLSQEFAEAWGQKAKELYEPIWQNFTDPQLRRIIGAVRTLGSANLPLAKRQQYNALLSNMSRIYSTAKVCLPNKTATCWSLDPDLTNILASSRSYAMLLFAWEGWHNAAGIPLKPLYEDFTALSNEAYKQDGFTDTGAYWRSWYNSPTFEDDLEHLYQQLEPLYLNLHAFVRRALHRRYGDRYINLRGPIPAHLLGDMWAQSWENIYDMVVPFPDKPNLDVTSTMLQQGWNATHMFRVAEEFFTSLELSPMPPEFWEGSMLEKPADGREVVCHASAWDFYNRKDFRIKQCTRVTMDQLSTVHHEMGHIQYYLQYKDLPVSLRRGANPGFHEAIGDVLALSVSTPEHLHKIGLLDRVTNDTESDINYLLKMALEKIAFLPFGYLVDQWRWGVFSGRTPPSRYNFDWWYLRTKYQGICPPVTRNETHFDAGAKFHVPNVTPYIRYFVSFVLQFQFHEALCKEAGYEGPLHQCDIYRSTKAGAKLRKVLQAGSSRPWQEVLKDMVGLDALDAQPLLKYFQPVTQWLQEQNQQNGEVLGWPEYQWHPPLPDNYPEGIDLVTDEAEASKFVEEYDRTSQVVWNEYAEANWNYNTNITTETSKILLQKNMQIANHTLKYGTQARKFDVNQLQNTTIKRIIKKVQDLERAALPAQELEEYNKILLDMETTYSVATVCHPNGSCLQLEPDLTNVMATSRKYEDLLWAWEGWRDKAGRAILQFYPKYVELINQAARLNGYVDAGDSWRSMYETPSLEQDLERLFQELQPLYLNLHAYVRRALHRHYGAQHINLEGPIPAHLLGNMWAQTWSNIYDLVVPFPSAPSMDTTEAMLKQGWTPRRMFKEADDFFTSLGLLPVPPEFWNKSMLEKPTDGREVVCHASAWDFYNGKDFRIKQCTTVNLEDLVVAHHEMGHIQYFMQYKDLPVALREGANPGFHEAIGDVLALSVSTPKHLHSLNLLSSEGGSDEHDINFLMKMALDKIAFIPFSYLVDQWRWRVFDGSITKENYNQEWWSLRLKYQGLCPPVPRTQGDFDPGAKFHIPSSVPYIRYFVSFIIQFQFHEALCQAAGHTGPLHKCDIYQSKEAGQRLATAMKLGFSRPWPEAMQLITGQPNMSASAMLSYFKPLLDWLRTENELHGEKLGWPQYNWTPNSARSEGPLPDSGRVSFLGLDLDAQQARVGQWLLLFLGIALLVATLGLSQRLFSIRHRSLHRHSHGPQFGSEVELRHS
Sequence of Neprilysin (P08473 whole entry, species assumed): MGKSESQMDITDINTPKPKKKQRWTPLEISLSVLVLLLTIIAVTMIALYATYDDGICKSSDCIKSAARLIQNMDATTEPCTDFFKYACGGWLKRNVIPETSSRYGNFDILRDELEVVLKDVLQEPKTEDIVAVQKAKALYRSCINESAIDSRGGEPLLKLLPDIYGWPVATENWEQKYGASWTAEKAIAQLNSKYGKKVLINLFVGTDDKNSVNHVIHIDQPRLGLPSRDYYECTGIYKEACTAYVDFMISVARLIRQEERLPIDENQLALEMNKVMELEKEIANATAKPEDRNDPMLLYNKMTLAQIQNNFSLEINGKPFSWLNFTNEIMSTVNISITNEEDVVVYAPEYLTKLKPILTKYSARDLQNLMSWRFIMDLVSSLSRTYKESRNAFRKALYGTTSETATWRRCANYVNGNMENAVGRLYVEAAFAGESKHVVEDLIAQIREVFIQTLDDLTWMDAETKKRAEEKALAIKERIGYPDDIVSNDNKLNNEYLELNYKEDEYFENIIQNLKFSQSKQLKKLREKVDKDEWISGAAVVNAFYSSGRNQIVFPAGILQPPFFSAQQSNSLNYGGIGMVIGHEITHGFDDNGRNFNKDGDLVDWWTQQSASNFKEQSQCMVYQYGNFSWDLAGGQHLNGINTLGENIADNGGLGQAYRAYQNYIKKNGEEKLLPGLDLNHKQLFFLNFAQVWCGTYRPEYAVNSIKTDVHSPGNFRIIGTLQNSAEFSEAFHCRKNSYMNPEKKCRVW

As for `CC(=O)SC[C@@H](Cc1ccccc1)C(=O)NCC(=O)OCc1ccccc1` [Ecadotril], in data set [1], the ACE inhibition was 23%. In addition, the Neprilysin inhibition in data set [2] is reported as 99%. For `NC(N)=NCCC[C@@H](N)C(=O)N[C@@H](CCCN=C(N)N)C(=O)N1CCC[C@H]1C(=O)N1C[C@H](O)C[C@H]1C(=O)NCC(=O)N[C@@H](Cc1cccs1)C(=O)N[C@@H](CO)C(=O)N1Cc2ccccc2C[C@@H]1C(=O)N1[C@H](C(=O)N[C@@H](CCCN=C(N)N)C(=O)O)C[C@@H]2CCCC[C@@H]21` [Icatibant], the “attenuation of hypotensive effects of acute or chronic valsartan” value in data set [3] is “did not attenuate”. With `NCCCC[C@H](N[C@@H](CCc1ccccc1)C(=O)O)C(=O)N1CCC[C@H]1C(=O)O` [Lisinopril], the ACE inhibition in data set [1] is on record as 83%.

On to `O=C(N[C@H]1CCS[C@H]2CCC[C@@H](C(=O)O)N2C1=O)[C@@H](S)Cc1ccccc1` [Omapatrilat], for which the ACE inhibition in data set [1] was greater than 90%. Further, the Neprilysin inhibition in data set [2] is reported as 53%. For the compound `Cn1c(=O)cc(N2CCC[C@@H](N)C2)n(Cc2ccccc2C#N)c1=O` [alogliptin], the joint pains result in data set [4] was “can cause severe joint pains”.

For `CN(C)C(=O)COC(=O)Cc1ccc(OC(=O)c2ccc(NC(=N)N)cc2)cc1` [camostat mesylate, Camostat mesylate], in data set [5], the “mortality following SARS-CoV infection” value is on record as 30-35%. The “inhibition of SARS-COV2 viral entry” value in data set [6] was “did not fully inhibit”. For the same compound, the “entry of viruses into host cells” value in data set [7] is on record as “left some residual entry of viruses”. As for `CC#CCn1c(N2CCC[C@@H](N)C2)nc2c1c(=O)n(Cc1nc(C)c3ccccc3n1)c(=O)n2C` [linagliptin], the joint pains result in data set [4] is reported as “can cause severe joint pains”. Take `N[C@@H](CC(=O)N1CCn2c(nnc2C(F)(F)F)C1)Cc1cc(F)c(F)cc1F` [sitagliptin]: in data set [4], the joint pains entry was “can cause severe joint pains”.

In the case of “rhACE2: rhACE2, injected in LPS-induced acute lung injury”, the “lung injury and inflammation” value in data set [8] is “improved lung injury and inflammation”.
